Test results published in patent publication JP2005330229A, “4−トリフルオロメトキシフェニル(オキシ)エチルアミン誘導体及び抗菌剤” (Ube Industries Ltd, priority 2004, dated 2005).

System: black mold Aspergillus niger (クロカビ)
Assay: Antimicrobial test, black mold (PDA plate, colony diameter)
Type: cell-based
Details: PDA medium, final concentration 500 mg/L, 25℃, 4 days; for inhibition at 500 µg/mL: 96 h, read-out: inhibition rate

| Compound | inhibition rate | inhibition at 500 µg/mL [%] |
| --- | --- | --- |
| 2−エトキシ−N−(2−(4−トリフルオロメトキシフェノキシ)エチル)ニコチン酸アミド [化合物番号12] | B (B:70〜89%阻害) | – |
| CS(=O)(=O)c1ncccc1C(=O)NCCOc1ccc(OC(F)(F)F)cc1 [化合物番号4, 2−メチルスルホニル−N−(2−(4−トリフルオロメトキシフェノキシ)エチル)ニコチン酸アミド] | – | 70 to 89 |
| C[S+]([O-])c1ncccc1C(=O)NCCOc1ccc(OC(F)(F)F)cc1 (centres unmarked) [化合物番号5, 2−メチルスルフィニル−N−(2−(4−トリフルオロメトキシフェノキシ)エチル)ニコチン酸アミド] | – | 50 to 69 |
| O=C(NCCc1ccc(OC(F)(F)F)cc1)c1ccncc1 [化合物番号33, N−(2−(4−トリフルオロメトキシフェニル)エチル)イソニコチン酸アミド] | – | 70 to 89 |
| N−(2−(4−トリフルオロメトキシフェノキシ)エチル)−9−トリフルオロメチル−ジピリド[2,3−b:3’,2’−f]1,4−チアゼピン−6(5H)−オン [化合物番号41] | C (C:50〜69%阻害) | – |
